Assays:
[1] = molecular target: T1, Neuropeptide Y receptor type 1 (Homo sapiens, UniProt P25929)
T1 sequence (P25929 whole entry): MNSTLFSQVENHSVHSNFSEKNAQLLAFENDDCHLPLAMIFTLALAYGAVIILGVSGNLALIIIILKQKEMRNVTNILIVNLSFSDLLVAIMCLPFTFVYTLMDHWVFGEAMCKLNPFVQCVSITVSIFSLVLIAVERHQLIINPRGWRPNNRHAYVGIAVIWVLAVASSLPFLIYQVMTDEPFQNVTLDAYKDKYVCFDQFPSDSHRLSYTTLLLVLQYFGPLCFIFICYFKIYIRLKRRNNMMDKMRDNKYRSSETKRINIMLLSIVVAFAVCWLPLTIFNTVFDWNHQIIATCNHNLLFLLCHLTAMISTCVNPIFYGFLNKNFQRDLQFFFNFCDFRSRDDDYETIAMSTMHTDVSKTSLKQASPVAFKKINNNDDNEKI

[2] = molecular target: T2, Muscarinic acetylcholine receptor M2 (Homo sapiens, UniProt P08172); type: functional, cell-based
T2 sequence (P08172 whole entry): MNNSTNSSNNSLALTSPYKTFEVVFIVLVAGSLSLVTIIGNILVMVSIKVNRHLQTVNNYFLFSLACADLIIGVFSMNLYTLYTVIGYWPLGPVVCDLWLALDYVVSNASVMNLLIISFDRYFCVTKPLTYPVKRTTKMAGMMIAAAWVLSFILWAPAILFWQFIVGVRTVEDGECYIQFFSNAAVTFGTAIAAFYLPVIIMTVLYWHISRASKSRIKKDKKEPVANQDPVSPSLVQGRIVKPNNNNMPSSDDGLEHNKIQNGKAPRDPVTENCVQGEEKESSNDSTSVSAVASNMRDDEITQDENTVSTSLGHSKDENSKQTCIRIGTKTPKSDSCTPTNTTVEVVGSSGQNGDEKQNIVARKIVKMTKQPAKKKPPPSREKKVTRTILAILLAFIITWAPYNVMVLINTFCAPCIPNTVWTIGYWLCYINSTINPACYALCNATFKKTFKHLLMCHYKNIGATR

[3] = molecular target: T3, Alpha-2A adrenergic receptor (Homo sapiens, UniProt P08913); type: functional, cell-based
T3 sequence (P08913 whole entry): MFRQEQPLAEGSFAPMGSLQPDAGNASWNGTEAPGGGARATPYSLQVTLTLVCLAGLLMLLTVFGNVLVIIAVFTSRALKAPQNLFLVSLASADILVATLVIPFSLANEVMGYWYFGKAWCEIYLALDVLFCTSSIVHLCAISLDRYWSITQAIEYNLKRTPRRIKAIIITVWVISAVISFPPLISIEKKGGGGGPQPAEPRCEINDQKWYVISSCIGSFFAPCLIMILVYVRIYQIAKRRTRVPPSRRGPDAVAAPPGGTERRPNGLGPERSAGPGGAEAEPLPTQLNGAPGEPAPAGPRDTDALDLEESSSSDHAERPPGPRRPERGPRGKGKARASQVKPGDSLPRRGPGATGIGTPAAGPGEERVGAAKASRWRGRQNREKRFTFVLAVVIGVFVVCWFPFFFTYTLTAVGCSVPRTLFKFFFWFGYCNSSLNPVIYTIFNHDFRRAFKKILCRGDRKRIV

B2 bradykinin receptor = molecular target: T4, B2 bradykinin receptor (Homo sapiens, UniProt P30411)
T4 sequence (P30411 whole entry): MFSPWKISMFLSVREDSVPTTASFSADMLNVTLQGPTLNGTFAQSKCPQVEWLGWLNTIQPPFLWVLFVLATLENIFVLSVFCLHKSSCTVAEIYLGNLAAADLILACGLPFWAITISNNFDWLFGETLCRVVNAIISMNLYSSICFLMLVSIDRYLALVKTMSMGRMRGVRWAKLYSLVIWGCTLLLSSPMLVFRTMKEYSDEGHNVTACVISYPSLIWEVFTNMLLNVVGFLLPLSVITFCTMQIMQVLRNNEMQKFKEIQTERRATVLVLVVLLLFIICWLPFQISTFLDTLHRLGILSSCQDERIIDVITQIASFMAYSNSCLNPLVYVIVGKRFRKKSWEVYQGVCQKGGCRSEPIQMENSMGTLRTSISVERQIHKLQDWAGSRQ

Adenosine receptor A2a = Adenosine receptor A2a (Homo sapiens, UniProt P29274)
Adenosine receptor A2a, sequence (P29274 whole entry): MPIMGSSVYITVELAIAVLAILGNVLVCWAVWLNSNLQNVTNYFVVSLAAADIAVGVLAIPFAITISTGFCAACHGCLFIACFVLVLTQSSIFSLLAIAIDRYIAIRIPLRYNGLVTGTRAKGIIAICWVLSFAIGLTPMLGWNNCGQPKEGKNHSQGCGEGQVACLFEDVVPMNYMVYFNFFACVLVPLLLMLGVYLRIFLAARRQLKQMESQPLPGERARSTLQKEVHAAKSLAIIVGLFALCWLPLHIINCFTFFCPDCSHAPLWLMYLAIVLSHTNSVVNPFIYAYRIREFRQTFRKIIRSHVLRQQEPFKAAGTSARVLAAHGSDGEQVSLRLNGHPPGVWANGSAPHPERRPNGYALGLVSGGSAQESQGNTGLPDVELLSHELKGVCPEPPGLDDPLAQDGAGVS

Thromboxane A2 receptor = molecular target: T5, Thromboxane A2 receptor (Homo sapiens, UniProt P21731)
T5 sequence (P21731 whole entry): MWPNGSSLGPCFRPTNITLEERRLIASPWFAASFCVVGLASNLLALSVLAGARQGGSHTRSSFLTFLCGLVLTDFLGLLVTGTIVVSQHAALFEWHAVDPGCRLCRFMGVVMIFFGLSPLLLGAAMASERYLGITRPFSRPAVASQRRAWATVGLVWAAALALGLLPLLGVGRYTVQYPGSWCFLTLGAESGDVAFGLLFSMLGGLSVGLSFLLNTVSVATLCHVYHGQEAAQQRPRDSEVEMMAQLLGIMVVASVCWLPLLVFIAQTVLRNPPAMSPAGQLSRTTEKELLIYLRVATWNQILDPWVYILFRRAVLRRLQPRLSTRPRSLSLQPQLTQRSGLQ

Adenosine receptor A1 = molecular target: T6, Adenosine receptor A1 (Homo sapiens, UniProt P30542)
T6 sequence (P30542 whole entry): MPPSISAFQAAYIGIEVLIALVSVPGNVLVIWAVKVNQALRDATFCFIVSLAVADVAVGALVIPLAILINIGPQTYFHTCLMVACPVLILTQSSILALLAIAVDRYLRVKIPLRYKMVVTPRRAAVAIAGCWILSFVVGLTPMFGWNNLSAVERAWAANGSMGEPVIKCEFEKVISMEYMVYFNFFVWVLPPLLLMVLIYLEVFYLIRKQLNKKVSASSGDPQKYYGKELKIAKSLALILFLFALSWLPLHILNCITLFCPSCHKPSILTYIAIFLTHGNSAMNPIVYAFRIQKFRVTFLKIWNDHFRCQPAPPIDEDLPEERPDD

D(3) dopamine receptor = D(3) dopamine receptor (Homo sapiens, UniProt P35462)
D(3) dopamine receptor, sequence (P35462 whole entry): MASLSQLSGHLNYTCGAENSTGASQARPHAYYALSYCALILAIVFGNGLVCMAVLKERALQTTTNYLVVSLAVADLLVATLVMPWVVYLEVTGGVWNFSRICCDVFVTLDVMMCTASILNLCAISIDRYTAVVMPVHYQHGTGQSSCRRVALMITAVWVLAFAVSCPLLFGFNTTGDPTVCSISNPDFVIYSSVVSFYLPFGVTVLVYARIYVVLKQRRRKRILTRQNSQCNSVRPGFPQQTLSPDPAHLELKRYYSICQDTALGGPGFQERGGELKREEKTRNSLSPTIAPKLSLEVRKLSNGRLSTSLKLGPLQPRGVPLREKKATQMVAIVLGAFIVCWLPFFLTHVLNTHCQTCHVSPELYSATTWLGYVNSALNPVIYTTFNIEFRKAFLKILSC
Note: assay procedure not described here.

Row | SMILES | AC50 ([1]; read-out: AC50) [µM] | AC50 [2] [µM] | AC50 [3] [µM] | AC50 (B2 bradykinin receptor) [µM] | AC50 (Adenosine receptor A2a) [µM] | AC50 (Thromboxane A2 receptor) [µM] | AC50 (Adenosine receptor A1) [µM] | AC50 (D(3) dopamine receptor) [µM] | AC50 [1] [µM]
1 | COc1ccccc1Oc1c(NS(=O)(=O)c2ccc(C(C)(C)C)cc2)nc(-c2ncccn2)nc1OCCO [BOSENTAN] | > 30 | > 10 | > 10 | > 30 | > 30 | > 30 | > 30 | > 30 | –
2 | O=C1CCc2cc(OCCCCc3nnnn3C3CCCCC3)ccc2N1 [CILOSTAZOL] | > 30 | > 30 | > 30 | > 30 | > 30 | > 30 | > 30 | > 30 | –
3 | Nc1ccc(S(=O)(=O)Nc2nccs2)cc1 [SULFATHIAZOLE] | > 30 | > 10 | > 10 | > 30 | > 30 | > 30 | > 30 | > 10 | –
4 | COc1ccc(CC2c3cc(OC)c(OC)cc3CC[N+]2(C)CCC(=O)OCCCCCOC(=O)CC[N+]2(C)CCc3cc(OC)c(OC)cc3C2Cc2ccc(OC)c(OC)c2)cc1OC (stereo not given) | > 30 | > 30 | 3.6 | > 30 | > 30 | > 30 | > 30 | > 30 | –
5 | CN1C[C@H](C(=O)N[C@]2(C)O[C@@]3(O)[C@@H]4CCCN4C(=O)[C@H](Cc4ccccc4)N3C2=O)C=C2c3cccc4[nH]cc(c34)C[C@H]21 [ERGOTAMINE] | – | > 30 | 0.3 | – | > 30 | – | > 30 | 1.6 | –
6 | CC(=O)O[C@]1(C(C)=O)CC[C@H]2[C@@H]3C=C(C)C4=CC(=O)CC[C@@H]4[C@H]3CC[C@@]21C [NOMEGESTROL ACETATE] | – | > 30 | > 30 | – | > 30 | > 30 | – | > 30 | –
7 | CC(S)C(=O)NCC(=O)O (stereo not given) [TIOPRONIN] | – | > 30 | > 30 | – | > 30 | – | > 30 | > 30 | –
8 | O=C1C(CC[S+]([O-])c2ccccc2)C(=O)N(c2ccccc2)N1c1ccccc1 (stereo not given) [SULFINPYRAZONE] | > 10 | > 10 | > 30 | > 10 | > 10 | > 10 | > 10 | > 30 | –
9 | CC(C)(C)NCC(O)c1cc(O)cc(O)c1 (stereo not given) [TERBUTALINE] | > 30 | – | – | > 30 | > 30 | > 30 | > 30 | – | –
10 | CN(CC1(C)CCCO1)S(=O)(=O)c1ccc(Cl)c(S(N)(=O)=O)c1 (stereo not given) [MEFRUSIDE] | – | – | > 30 | – | – | – | – | > 30 | –
11 | C[C@@H](NCCCc1cccc(C(F)(F)F)c1)c1cccc2ccccc12 | > 10 | > 30 | > 30 | > 3 | > 30 | > 30 | > 30 | 1.5 | –
12 | C#C[C@]1(O)CC[C@H]2[C@@H]3CCC4=CC(=O)CC[C@@H]4[C@H]3C(=C)C[C@@]21CC [ETONOGESTREL] | – | – | > 30 | – | – | – | – | > 30 | –
13 | CCN1CCN(Cc2ccc(Nc3ncc(F)c(-c4cc(F)c5nc(C)n(C(C)C)c5c4)n3)nc2)CC1 [ABEMACICLIB] | – | > 30 | > 30 | – | > 30 | – | > 30 | > 30 | –
14 | C[C@H]1c2cccc(O)c2C(=O)C2=C(O)[C@]3(O)C(=O)C(C(N)=O)=C(O)[C@@H](N(C)C)[C@@H]3[C@@H](O)[C@@H]21 [DOXYCYCLINE] | > 30 | > 10 | > 10 | > 30 | > 30 | > 30 | 24.2 | > 10 | –
15 | CCN(CC)CCNC(=O)c1c(C)[nH]c(/C=C2\C(=O)Nc3ccc(F)cc32)c1C [SUNITINIB] | – | > 30 | 24 | 2.5 | 5.3 | 9.1 | 6.4 | 1.94 | 6.9
16 | CO[C@H]1/C=C/O[C@@]2(C)Oc3c(C)c(O)c4c(O)c(c(/C=N/N5CCN(C)CC5)c(O)c4c3C2=O)NC(=O)/C(C)=C\C=C\[C@H](C)[C@H](O)[C@@H](C)[C@@H](O)[C@@H](C)[C@H](OC(C)=O)[C@@H]1C [RIFAMPIN] | 22.5 | > 30 | > 30 | 18.6 | 13 | 17.4 | 18.8 | 11 | –
17 | C[C@H](CCC(=O)O)[C@H]1CC[C@H]2[C@@H]3[C@@H](O)C[C@@H]4C[C@H](O)CC[C@]4(C)[C@H]3CC[C@]12C [URSODIOL] | – | > 30 | > 30 | – | > 30 | – | > 30 | > 30 | –
18 | CN(C)CCC[C@@]1(c2ccc(F)cc2)OCc2cc(C#N)ccc21 [ESCITALOPRAM] | > 30 | – | > 30 | > 30 | > 30 | > 30 | > 30 | – | –
19 | C[C@@H](Oc1cc(-c2cnn(C3CCNCC3)c2)cnc1N)c1c(Cl)ccc(F)c1Cl [CRIZOTINIB] | 8.44 | > 10 | 15 | – | > 30 | > 30 | > 30 | > 30 | –
20 | OC[C@H]1O[C@@](CO)(O[C@H]2O[C@H](CO)[C@@H](O)[C@H](O)[C@H]2O)[C@@H](O)[C@@H]1O [SUCROSE] | > 30 | > 30 | > 30 | > 30 | > 30 | – | > 30 | > 30 | –
21 | CC(C)c1nc(N(C)S(C)(=O)=O)nc(-c2ccc(F)cc2)c1/C=C/[C@@H](O)C[C@@H](O)CC(=O)O [ROSUVASTATIN] | > 30 | > 30 | > 30 | > 30 | > 30 | – | > 30 | > 30 | –
22 | C=C[C@H]1C[N@@]2CC[C@H]1C[C@@H]2[C@@H](O)c1ccnc2ccc(OC)cc12 [QUINIDINE] | > 30 | > 10 | 12 | > 30 | > 30 | – | > 30 | 2.8 | –
